Source: BindingDB's records for doi:10.1021/jm020230j (Sunesis Pharmaceuticals, 2002)

Legend:
Experiment in all cases: Fluorometric Assay
Conditions in all cases: pH 7.4; 25 °C
[1] = target: Caspase-8 (Homo sapiens, UniProt Q14790)
Protocol: (§1) The effectiveness of compounds against the activity of human recombinant caspase-1-8 was measured using fluorometric assays. Assays were carried out in a 96-well flat bottom, polystyrene plates. […] Kinetic data were collected over a 15 min assay run at room temperature. IC50 values were calculated through a four parameter fit curve using the computer application SOFTmax PRO. Ki(apparent) values were calculated using the following equation: Ki(app) = IC50/(1 + [substrate]/Km).

[2] = target: T1, Caspase-3 (Homo sapiens, UniProt P42574)
T1 sequence (P42574 whole entry): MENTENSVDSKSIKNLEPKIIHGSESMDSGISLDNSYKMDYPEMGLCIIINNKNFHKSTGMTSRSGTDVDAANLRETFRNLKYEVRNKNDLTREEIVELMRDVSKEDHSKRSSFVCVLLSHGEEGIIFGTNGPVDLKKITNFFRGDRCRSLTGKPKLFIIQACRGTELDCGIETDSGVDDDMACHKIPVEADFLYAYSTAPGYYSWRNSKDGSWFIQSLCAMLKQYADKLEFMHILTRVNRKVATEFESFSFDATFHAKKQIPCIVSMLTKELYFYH
Protocol: as §1

[3] = target: T2, Caspase-1 (Homo sapiens, UniProt P29466)
T2 sequence (P29466 whole entry): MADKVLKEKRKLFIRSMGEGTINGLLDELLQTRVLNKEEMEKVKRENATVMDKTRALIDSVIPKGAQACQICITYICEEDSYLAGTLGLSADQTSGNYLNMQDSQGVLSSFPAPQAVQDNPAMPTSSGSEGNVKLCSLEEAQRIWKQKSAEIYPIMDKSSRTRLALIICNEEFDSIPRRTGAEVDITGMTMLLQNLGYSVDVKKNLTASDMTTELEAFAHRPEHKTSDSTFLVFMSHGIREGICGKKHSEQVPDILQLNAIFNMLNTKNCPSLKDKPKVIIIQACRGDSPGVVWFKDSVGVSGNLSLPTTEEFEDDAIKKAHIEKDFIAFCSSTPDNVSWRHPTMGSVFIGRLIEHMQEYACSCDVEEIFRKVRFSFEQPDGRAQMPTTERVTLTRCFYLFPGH
Protocol: as §1

[4] = target: T3, Caspase-7 (Homo sapiens, UniProt P55210)
T3 sequence (P55210 whole entry): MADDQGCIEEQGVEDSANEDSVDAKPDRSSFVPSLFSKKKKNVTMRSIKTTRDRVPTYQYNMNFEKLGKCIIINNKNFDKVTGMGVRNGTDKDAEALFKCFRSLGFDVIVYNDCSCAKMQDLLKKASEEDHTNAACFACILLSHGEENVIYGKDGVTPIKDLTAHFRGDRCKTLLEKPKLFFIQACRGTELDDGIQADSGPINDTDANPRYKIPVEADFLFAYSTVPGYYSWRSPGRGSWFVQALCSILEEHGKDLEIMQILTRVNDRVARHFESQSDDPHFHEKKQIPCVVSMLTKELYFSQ
Protocol: as §1

[5] = target: T4, Caspase-6 (Homo sapiens, UniProt P55212)
T4 sequence (P55212 whole entry): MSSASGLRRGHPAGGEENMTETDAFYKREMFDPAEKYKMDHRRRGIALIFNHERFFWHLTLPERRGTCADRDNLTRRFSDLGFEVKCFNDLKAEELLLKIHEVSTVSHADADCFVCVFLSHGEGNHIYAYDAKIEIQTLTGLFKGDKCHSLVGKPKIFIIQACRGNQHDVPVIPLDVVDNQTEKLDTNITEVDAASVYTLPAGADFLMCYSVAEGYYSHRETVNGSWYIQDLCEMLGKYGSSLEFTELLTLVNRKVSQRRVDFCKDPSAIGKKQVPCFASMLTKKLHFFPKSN
Protocol: as §1

[6] = target: T5, Caspase-4 (Homo sapiens, UniProt P49662)
T5 sequence (P49662 whole entry): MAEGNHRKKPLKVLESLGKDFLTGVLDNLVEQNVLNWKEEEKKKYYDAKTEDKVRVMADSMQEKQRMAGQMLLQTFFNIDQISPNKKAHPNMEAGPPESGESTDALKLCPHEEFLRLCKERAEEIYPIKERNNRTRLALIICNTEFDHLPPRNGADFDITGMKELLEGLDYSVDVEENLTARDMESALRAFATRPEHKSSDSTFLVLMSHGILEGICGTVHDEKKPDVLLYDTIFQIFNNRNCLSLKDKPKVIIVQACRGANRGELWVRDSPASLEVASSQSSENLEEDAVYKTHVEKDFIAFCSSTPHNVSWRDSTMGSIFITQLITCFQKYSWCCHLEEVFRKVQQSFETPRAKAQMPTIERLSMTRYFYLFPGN
Protocol: as §1

[7] = target: T6, Caspase-2 (Homo sapiens, UniProt P42575)
T6 sequence (P42575 whole entry): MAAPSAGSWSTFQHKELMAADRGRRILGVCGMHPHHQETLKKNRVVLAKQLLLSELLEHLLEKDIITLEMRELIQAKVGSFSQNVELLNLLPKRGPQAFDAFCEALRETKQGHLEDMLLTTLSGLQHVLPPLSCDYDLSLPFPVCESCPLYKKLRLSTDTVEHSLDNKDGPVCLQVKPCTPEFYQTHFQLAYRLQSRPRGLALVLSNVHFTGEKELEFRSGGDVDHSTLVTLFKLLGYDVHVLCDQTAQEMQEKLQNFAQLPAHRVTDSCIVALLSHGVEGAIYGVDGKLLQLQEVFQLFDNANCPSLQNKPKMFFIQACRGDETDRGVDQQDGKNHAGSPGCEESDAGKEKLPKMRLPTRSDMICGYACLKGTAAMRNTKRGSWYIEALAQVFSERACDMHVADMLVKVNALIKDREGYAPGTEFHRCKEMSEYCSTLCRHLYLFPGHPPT
Protocol: as §1

Chain of Caspase-8 (Q14790 217-374 limits assumed): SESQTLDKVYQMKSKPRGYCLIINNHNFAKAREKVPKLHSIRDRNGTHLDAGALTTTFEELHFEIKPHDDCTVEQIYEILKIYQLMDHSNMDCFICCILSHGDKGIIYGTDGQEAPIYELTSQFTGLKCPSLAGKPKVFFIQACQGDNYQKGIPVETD
Chain of Caspase-8 (Q14790 385-479 limits assumed): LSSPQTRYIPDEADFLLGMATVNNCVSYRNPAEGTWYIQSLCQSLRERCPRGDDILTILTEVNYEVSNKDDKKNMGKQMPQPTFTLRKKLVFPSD

Question: `O=C(O)C[C@H](NC(=O)c1ccc(CNS(=O)(=O)c2ccc(O)c(C(=O)O)c2)nc1)C(=O)CSCc1ccccc1Cl` [(S)-5-({5-[1-Carboxymethyl-3-(2-chloro-benzylsulfanyl)-2-oxo-propylcarbamoyl]pyridin-2-ylmethyl}sulfamoyl)-2-hydroxy-benzoic Acid] was tested. Which Ki [1] did it give?
Answer: 810 nM

Question: And the Ki [2]?
Answer: 30 nM

Question: And the Ki [3]?
Answer: 1500 nM

Question: And the Ki [4]?
Answer: 90 nM

Question: What about the Ki [5] of the same compound?
Answer: 120 nM

Question: And the Ki [6]?
Answer: 38000 nM

Question: What about the Ki [7] of the same compound?
Answer: 11000 nM
